Laboratory results from patent US10167257B2, “Indole derivatives for use in medicine” (IOmet Pharma Ltd., priority 2014, dated 2019).

Legend:
[1] = target: T1, TDO (A172 cells) (Homo sapiens, UniProt P48775); test: TDO cell-based assay (A172), kynurenine production; details: A172 human glioblastoma cells, 500 μM L-Trp, 48 h, kynurenine by absorbance at 490 nm
T1 construct: This assay utilised cancer cells which expressed either TDO or IDO; host or cells: A172 human glioblastoma cells
Method in brief: (§1)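 SKOV-3 cells (IDO, induced with 500 ng/ml IFNγ) or A172 glioblastoma cells (TDO) were incubated with compound and 500 μM L-Trp for 48 h at 37 °C in phenol-red-free RPMI with dialysed serum. Supernatant kynurenine was measured with 1% Ehrlich's reagent as absorbance at 490 nm.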

[2] = target: T2, IDO (SKOV-3 cells) (Homo sapiens, UniProt P14902); test: IDO cell-based assay (SKOV-3, IFNγ-induced), kynurenine production; details: SKOV-3 ovary adenocarcinoma cells, IFNγ 500 ng/ml, 500 μM L-Trp, 48 h, kynurenine by absorbance at 490 nm
T2 construct: This assay utilised cancer cells which expressed either TDO or IDO; host or cells: SKOV-3 ovary adenocarcinoma cells, IFNγ-induced
T2 sequence (P14902 whole entry): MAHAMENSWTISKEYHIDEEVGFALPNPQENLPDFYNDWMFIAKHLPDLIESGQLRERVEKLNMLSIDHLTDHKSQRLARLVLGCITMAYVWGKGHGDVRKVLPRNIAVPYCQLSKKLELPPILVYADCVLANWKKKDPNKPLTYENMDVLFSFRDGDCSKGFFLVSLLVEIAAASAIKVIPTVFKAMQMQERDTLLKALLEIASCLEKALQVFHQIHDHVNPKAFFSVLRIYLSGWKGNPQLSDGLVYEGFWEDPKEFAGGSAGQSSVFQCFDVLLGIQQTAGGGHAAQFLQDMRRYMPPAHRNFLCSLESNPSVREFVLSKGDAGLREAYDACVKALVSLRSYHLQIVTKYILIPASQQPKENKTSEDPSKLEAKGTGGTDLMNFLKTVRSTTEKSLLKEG
Method in brief: as §1

T1 sequence (P48775 whole entry): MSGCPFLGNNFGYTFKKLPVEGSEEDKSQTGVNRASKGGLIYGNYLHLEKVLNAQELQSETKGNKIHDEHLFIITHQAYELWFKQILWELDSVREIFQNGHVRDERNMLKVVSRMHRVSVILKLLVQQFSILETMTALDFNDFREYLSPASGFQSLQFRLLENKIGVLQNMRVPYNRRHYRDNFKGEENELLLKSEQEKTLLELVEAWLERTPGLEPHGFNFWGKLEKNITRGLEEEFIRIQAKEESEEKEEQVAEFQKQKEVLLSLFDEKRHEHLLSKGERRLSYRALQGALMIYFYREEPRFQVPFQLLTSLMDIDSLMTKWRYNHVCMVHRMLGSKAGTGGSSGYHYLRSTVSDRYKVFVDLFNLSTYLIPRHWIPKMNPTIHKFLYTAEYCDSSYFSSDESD

CC(NC(=O)c1cc2cc(Cl)ccc2[nH]1)c1ccn(C)n1 (stereo not drawn) [Compound 201]
TDO cellular assay (A172) pIC50 [1]: − (− = pIC50 <4.50) | IDO cellular assay (SKOV3) pIC50 [2]: + (+ = pIC50 4.50-<5.00)

CC(NC(=O)c1cc2cc(Cl)cc(F)c2[nH]1)c1cnn(C)c1 (stereo not drawn) [Compound 202]
TDO cellular assay (A172) pIC50 [1]: − (− = pIC50 <4.50) | IDO cellular assay (SKOV3) pIC50 [2]: +++ (+++ = pIC50 ≥5.50)

CC(NC(=O)c1cc2cc(Cl)c(F)cc2[nH]1)c1cnn(C)c1 (stereo not drawn) [Compound 203]
TDO cellular assay (A172) pIC50 [1]: + (+ = pIC50 4.50-<5.00) | IDO cellular assay (SKOV3) pIC50 [2]: ++ (++ = pIC50 5.00-<5.50)

Cn1cc(C2(NC(=O)c3cc4cc(Cl)c(F)cc4[nH]3)CC2)cn1 [Compound 204]
TDO cellular assay (A172) pIC50 [1]: − (− = pIC50 <4.50) | IDO cellular assay (SKOV3) pIC50 [2]: +++ (+++ = pIC50 ≥5.50)

Cn1cc(C2(NC(=O)c3cc4cc(Cl)cc(F)c4[nH]3)CC2)cn1 [Compound 205]
TDO cellular assay (A172) pIC50 [1]: − (− = pIC50 <4.50) | IDO cellular assay (SKOV3) pIC50 [2]: +++ (+++ = pIC50 ≥5.50)

Cn1cc(C2(NC(=O)c3cc4ccc(C(F)F)cc4[nH]3)CC2)cn1 [Compound 206]
TDO cellular assay (A172) pIC50 [1]: − (− = pIC50 <4.50) | IDO cellular assay (SKOV3) pIC50 [2]: + (+ = pIC50 4.50-<5.00)

COc1ccc(-n2cc(C(C)NC(=O)c3cc4cc(Cl)ccc4[nH]3)cn2)cc1OC (stereo not drawn) [Compound 207]
TDO cellular assay (A172) pIC50 [1]: + (+ = pIC50 4.50-<5.00) | IDO cellular assay (SKOV3) pIC50 [2]: +++ (+++ = pIC50 ≥5.50)

C[C@@H](NC(=O)c1cc2cc(Cl)c(F)cc2[nH]1)c1ccccc1 [Compound 208]
TDO cellular assay (A172) pIC50 [1]: + (+ = pIC50 4.50-<5.00) | IDO cellular assay (SKOV3) pIC50 [2]: +++ (+++ = pIC50 ≥5.50)

O=C(NC1(c2ccccc2)CC1)c1cc2cc(Cl)c(F)cc2[nH]1 [Compound 209]
TDO cellular assay (A172) pIC50 [1]: ++ (++ = pIC50 5.00-<5.50) | IDO cellular assay (SKOV3) pIC50 [2]: +++ (+++ = pIC50 ≥5.50)

O=C(NC1(c2ccccc2)COC1)c1cc2cc(Cl)c(F)cc2[nH]1 [Compound 210]
TDO cellular assay (A172) pIC50 [1]: + (+ = pIC50 4.50-<5.00) | IDO cellular assay (SKOV3) pIC50 [2]: +++ (+++ = pIC50 ≥5.50)

Cn1cc(C2(NC(=O)c3cc4cc(O)ccc4[nH]3)CC2)cn1 [Compound 211]
TDO cellular assay (A172) pIC50 [1]: − (− = pIC50 <4.50) | IDO cellular assay (SKOV3) pIC50 [2]: + (+ = pIC50 4.50-<5.00)

Cc1nc(C(C)NC(=O)c2cc3cc(Cl)ccc3[nH]2)no1 (stereo not drawn) [Compound 212]
TDO cellular assay (A172) pIC50 [1]: + (+ = pIC50 4.50-<5.00) | IDO cellular assay (SKOV3) pIC50 [2]: ++ (++ = pIC50 5.00-<5.50)

Cn1cc(C2(NC(=O)c3cc4cc(Cl)ccc4[nH]3)COC2)cn1 [Compound 213]
TDO cellular assay (A172) pIC50 [1]: − (− = pIC50 <4.50) | IDO cellular assay (SKOV3) pIC50 [2]: +++ (+++ = pIC50 ≥5.50)

CCn1cc(C2(NC(=O)c3cc4cc(Cl)ccc4[nH]3)CC2)cn1 [Compound 214]
TDO cellular assay (A172) pIC50 [1]: − (− = pIC50 <4.50) | IDO cellular assay (SKOV3) pIC50 [2]: +++ (+++ = pIC50 ≥5.50)

Cn1cc(C2(NC(=O)c3cc4cc(Cl)ccc4[nH]3)CCC2)cn1 [Compound 215]
TDO cellular assay (A172) pIC50 [1]: − (− = pIC50 <4.50) | IDO cellular assay (SKOV3) pIC50 [2]: +++ (+++ = pIC50 ≥5.50)

Cc1nc(C(C)NC(=O)c2cc3cc(C#N)ccc3[nH]2)no1 (stereo not drawn) [Compound 216]
TDO cellular assay (A172) pIC50 [1]: − (− = pIC50 <4.50) | IDO cellular assay (SKOV3) pIC50 [2]: + (+ = pIC50 4.50-<5.00)

Cc1cc(C2(NC(=O)c3cc4cc(Cl)ccc4[nH]3)CC2)no1 [Compound 217]
TDO cellular assay (A172) pIC50 [1]: − (− = pIC50 <4.50) | IDO cellular assay (SKOV3) pIC50 [2]: +++ (+++ = pIC50 ≥5.50)

O=C(NC1(c2ccccc2)COC1)c1cc2ccc(C(F)F)cc2[nH]1 [Compound 218]
TDO cellular assay (A172) pIC50 [1]: − (− = pIC50 <4.50) | IDO cellular assay (SKOV3) pIC50 [2]: + (+ = pIC50 4.50-<5.00)
